Measurements as given in PubChem BioAssay (NCI).
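GI50 is the concentration that inhibits growth by half. At the TGI there is no net growth.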

Legend:
Test in all cases: NCI-60 cell line screen, 384-well format
[1] = system: SF-539 CNS
[2] = system: MCF7 breast
[3] = system: NCI-H460 NSCLC
[4] = system: HCT-116 colon
[5] = system: SNB-75 CNS
[6] = system: BT-549 breast
[7] = system: TK-10 renal
[8] = system: RXF 393 renal
[9] = system: NCI-H23 lung
[10] = system: HL-60(TB) leukemia
[11] = system: ACHN renal
[12] = system: SF-295 CNS
[13] = system: SN12C renal

CCc1c(C#N)c(SC(C(N)=O)c2ccccc2)nc(N2CCC(N)CC2)c1C#N (stereo unspecified)
GI50 [1]: 6.59 µM
TGI [1]: 19.3 µM
GI50 [2]: 5.36 µM
TGI [2]: 17.7 µM
GI50 [3]: 11.2 µM
TGI [3]: 23.5 µM
GI50 [4]: 1.84 µM
TGI [4]: 14.5 µM
GI50 [5]: 14.9 µM
TGI [5]: 28.2 µM
GI50 [6]: 10.3 µM
TGI [6]: 22.1 µM
GI50 [7]: 17.5 µM
TGI [7]: 31.4 µM
GI50 [8]: 16.2 µM
TGI [8]: 29.8 µM
GI50 [9]: 11.5 µM
TGI [9]: 23.7 µM
GI50 [10]: 2.29 µM
TGI [10]: 9.95 µM
GI50 [11]: 14.9 µM
TGI [11]: 28.2 µM
GI50 [12]: 13.2 µM
TGI [12]: 26 µM
GI50 [13]: 11.5 µM
TGI [13]: 23.7 µM
